Results as given in PMC6691788, “Design and synthesis of phthalazine-based compounds as potent anticancer agents with potential antiangiogenic activity via VEGFR-2 inhibition” (Journal of Enzyme Inhibition and Medicinal Chemistry, 2019).

What was measured:
Assay in all cases: NCI 60 cell panel SRB screen
Assay type in all cases: cell-based
U251 = details: Homo sapiens, U-251; U251, single dose 10 μM; read-out: percent cell growth promotion
MDA-MB-468 = details: Homo sapiens, MDA-MB-468; MDA-MBA-468, single dose 10 μM; read-out: percent cell growth promotion
Protocol: The human tumor cell lines of the cancer-screening panel were grown in RPMI 1640 medium containing 5% fetal bovine serum and […] L-glutamine. For a typical screening experiment, cells are inoculated into 96 well microtiter plates in 100 ml at plating densities ranging from 5000 to 40,000 cells/well depending on the doubling time of individual cell lines. After cell inoculation, the microtiter plates are incubated at 37 °C, 5% CO2, 95% air and 100%
relative humidity for 24 h prior to addition of experimental drugs. After 24 h, two plates of each cell line are fixed in situ with TCA, to represent a measurement of the cell population for each cell line at the time of drug addition (Tz). Experimental drugs are dissolved in dimethyl sulfoxide at 400-fold the desired final maximum test concentration and stored frozen prior to use. At the time of drug addition, an aliquot of frozen concentrate is thawed and diluted to twice the desired final maximum test concentration with complete medium containing […] Gentamicin. Additional four, 10-fold or ½log serial dilutions are made to provide a total of five drug concentrations plus control. Aliquots of […] of these different drug dilutions are added to the appropriate microtiter wells already containing 100 ml of medium, resulting in the required final drug concentrations. Following drug addition, the plates are incubated for an additional 48 h at 37 °C, 5% CO2, 95% air, and 100% relative humidity. For adherent cells, the assay is terminated by the addition of cold TCA. Cells are fixed in situ by the gentle addition of […] of cold 50% (w/v) TCA (final concentration,10% TCA) and incubated for 60 min at 4 °C. The supernatant is discarded, and the plates are washed five times with tap water and air dried. Sulforhodamine B (SRB) solution (100 ml) at 0.4% (w/v) in 1% acetic acid is added to each well, and plates are incubated for 10 min at room temperature. After staining, unbound dye is removed by washing five times with 1% acetic acid and the plates are air dried. Bound stain is subsequently dissolved with 10 μM trizma base, and the absorbance is read on an automated plate reader at a wavelength of 515 nm. For suspension cells, the methodology is the same except that the assay is terminated by fixing settled cells at the bottom of the wells by gently adding […] of 80% TCA (final concentration, 16% TCA).
Using the seven absorbance measurements [time zero, (Tz), control growth, (C), and test growth in the presence of drug at the five concentration levels (Ti)], the percentage growth is calculated at each of the drug concentrations levels. Percentage growth inhibition is calculated as: [(Ti -Tz)/(C - Tz)] x 100 for concentrations for which Ti>/ ¼ Tz and [(Ti -Tz) / Tz] x100 for concentrations for which Ti <Tz.
Three dose response parameters are calculated for each experimental agent. Growth inhibition of 50% (GI50) is calculated from [(Ti -Tz)/(C - Tz)] x 100 =50, which is the drug concentration resulting in a 50% reduction in the net protein increase (as measured by SRB staining) in control cells during the drug incubation. The drug concentration resulting in total growth inhibition (TGI) is calculated from Ti ¼ Tz. The LC50 (concentration of drug resulting in a 50% reduction in the measured protein at the end of the drug treatment as compared to that at the beginning) indicating a net loss of cells following treatment is calculated from [(Ti - Tz) / Tz] x100 = -50. Values are calculated for each of these three parameters if the level of activity is reached; however, if the effect is not reached or is exceeded, the value for that parameter is expressed as greater or less than the maximum or minimum concentration tested.

NCI-H460 = details: Homo sapiens; NCI-H460, single dose 10 μM; read-out: percent cell growth promotion
SNB-75 = details: Homo sapiens; SNB-75, single dose 10 μM; read-out: percent cell growth promotion
ACHN = details: Homo sapiens, single dose 10 μM, read-out: percent cell growth promotion
SK-MEL-5 = details: Homo sapiens, SK-MEL-5, read-out: percent cell growth promotion
BT-549 = details: Homo sapiens, BT-549, read-out: percent cell growth promotion

| Compound | activity at 10 µM (U251) [%] | activity at 10 µM (MDA-MB-468) [%] | activity at 10 µM (NCI-H460) [%] | activity at 10 µM (SNB-75) [%] | activity at 10 µM (ACHN) [%] | activity at 10 µM (SK-MEL-5) [%] | activity at 10 µM (BT-549) [%] |
| --- | --- | --- | --- | --- | --- | --- | --- |
| CCOC(=O)N1CCN(c2nncc3ccccc23)CC1 [Compound 8a, Ethyl 4-(phthalazin-1-yl)piperazine-1-carboxylate] | 99.3 | 97.7 | 105 | 104 | 115 | 103 | 112 |
| c1ccc(N2CCN(c3nncc4ccccc34)CC2)nc1 [Compound 8d, 1–(4-(Pyridin-2-yl)piperazin-1-yl)phthalazine] | 96.9 | 93.3 | 108 | 105 | 115 | 97.5 | 104 |
| CCOC(=O)N1CCN(c2nnc(C)c3ccccc23)CC1 [Compound 8f, Ethyl 4–(4-methylphthalazin-1-yl)piperazine-1-carboxylate] | 96 | 104 | 104 | 101 | 107 | 97.5 | 66.7 |
| Cc1nnc(N2CCN(c3ccccc3)CC2)c2ccccc12 [Compound 8g, 1-Methyl-4–(4-phenylpiperazin-1-yl)phthalazine] | 96.7 | 98.8 | 105 | 98.1 | 100 | 98.1 | 75.5 |
| Cc1nnc(N2CCN(c3ccccc3F)CC2)c2ccccc12 [Compound 8h, 1–(4-(2-Fluorophenyl)piperazin-1-yl)-4-methylphthalazine] | 96.2 | 84.8 | 101 | 109 | 98.4 | 92.9 | – |
| Cc1nnc(N2CCN(c3ccccn3)CC2)c2ccccc12 [Compound 8i, 1-Methyl-4–(4-(pyridin-2-yl)piperazin-1-yl)phthalazine] | 98.6 | 87.4 | 103 | 114 | 99.6 | 97 | – |
